Values of other authors as cited in US7642235B2, “Macrocyclic peptides active against the hepatitis C virus” (Boehringer Ingelheim International GmbH, priority 2003, dated 2010).

Test system: hepatitis C virus
Conditions: two day clinical trial; Nature (2003) 426, p.186-189

COc1ccc2c(O[C@@H]3C[C@H]4C(=O)N[C@]5(C(=O)O)C[C@H]5/C=C\CCCCC[C@H](NC(=O)OC5CCCC5)C(=O)N4C3)cc(-c3csc(NC(C)C)n3)nc2c1 [BILN 2061]
viral loads in patients infected with the hepatitis C virus: effective in rapidly reducing viral loads
